Experimental data published in patent publication US20220073536A1 (Rigel Pharmaceuticals, Inc., priority 2003, published 2022).

Key:
[1] = tested on: cultured human mast cells (CHMC); assay: CHMC low cell density IgE activation: tryptase assay; assay type: cell-based; details: IgE activation
Outline: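 Fluorogenic readout of tryptase released into the supernatant (30 min substrate incubation, room temperature) measures degranulation. Cells were plated at low density (1000–1500/well, varied by donor) and triggered with anti-IgE for 30 min at 37 °C.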

[2] = tested on: cultured human mast cells (CHMC); assay: CHMC low cell density ionomycin activation: tryptase assay; assay type: cell-based; details: 3 pt, read-out: LD Tryptase, CHMC, Iono, 3 pt
[3] = Homo sapiens, Mast cell, low cell density CHMC, tryptase, 3 pt, read-out: LD Tryptase, CHMC, IgE, 3 pt
[4] = Homo sapiens, Mast cell, low cell density CHMC, tryptase
[5] = Homo sapiens, Mast cell, low cell density CHMC, tryptase, 8 pt, read-out: LD Tryptase, CHMC, IgE, 8 pt
[6] = low cell density CHMC, tryptase, 3 pt, read-out: LD Tryptase, CHMC, IgE, 3 pt
[7] = low cell density CHMC, tryptase
[8] = Homo sapiens, Mast cell, low cell density, 3 pt, read-out: LD Tryptase, CHMC, IgE, 3 pt
[9] = Homo sapiens, Mast cell, low cell density
[10] = low cell density, 3 pt, read-out: LD Tryptase, CHMC, IgE, 3 pt
[11] = Homo sapiens, Mast cell, low cell density, 8 pt, read-out: LD Tryptase, CHMC, IgE, 8 pt

Row | IC50 [1, 3] | IC50 [2, 4] | Compound | further results
1 | < 10 µM | > 10 µM | COC(=O)CN(c1ccc2c(c1)OCCO2)c1nc(Nc2ccc3cc[nH]c3c2)ncc1F [Compound 420, N4-(3,4-Ethylenedioxyphenyl)-5-fluoro-N2-(indol-6-yl)-N4-(methoxycarbonylmethyl)-2,4-pyrimidinediamine] | 
2 | < 10 µM | > 10 µM | CNC(=O)c1cc2cccc(Nc3ncc(F)c(Nc4ccc(OC)c(OC)c4)n3)c2[nH]1 [Compound 421, N4-(3,4-Dimethoxyphenyl)-5-fluoro-N2-[2-(N-methylaminocarbonyl)indol-7-yl]-2,4-pyrimidinediamine] | 
3 | < 10 µM | > 10 µM | COc1ccc(Nc2nc(Nc3ccc(-c4cnco4)cc3)ncc2F)cc1OC [Compound 422, N4-(3,4-Dimethoxyphenyl)-5-fluoro-N2-[4-(oxazol-5-yl)phenyl]-2,4-pyrimidinediamine] | IC50 [1, 5]: < 10 µM
4 | < 10 µM | > 10 µM | COc1ccc(Nc2nc(Nc3ccc(-c4ncco4)cc3)ncc2F)cc1OC [Compound 424] | 
5 | < 10 µM | > 10 µM | COc1ccc(Nc2ncc(F)c(Nc3ccc(OC)c(OC)c3)n2)cc1Cl [Compound 425, N2-(3-Chloro-4-methoxyphenyl)-N4-(3,4-dimethoxyphenyl)-5-fluoro-2,4-pyrimidinediamine] | IC50 [1, 5]: < 10 µM
6 | < 10 µM | > 10 µM | CC(=O)N1CCN(c2cccc(Nc3ncc(F)c(Nc4ccc5c(c4)OCCO5)n3)c2)CC1 [Compound 426] | IC50 [1, 5]: < 10 µM
7 | < 10 µM | > 10 µM | CC(=O)N1CCN(c2ccc(Nc3ncc(F)c(Nc4ccc5c(c4)OCCO5)n3)cc2)CC1 [Compound 427, N2-[4-(4-Acetylpiperazino)phenyl]-N4-(3,4-ethylenedioxyphenyl)-5-fluoro-2,4-pyrimidinediamine] | IC50 [1, 5]: < 10 µM
8 | < 10 µM | > 10 µM | COc1cc(Nc2nc(Nc3cccc(N4CCN(C(C)=O)CC4)c3)ncc2F)cc(OC)c1 [Compound 428, N2-[3-(4-Acetylpiperazino)phenyl]-N4-(3,5-dimethoxyphenyl)-5-fluoro-2,4-pyrimidinediamine] | 
9 | < 10 µM | > 10 µM | COc1ccc(Nc2nc(Nc3cccc(N4CCN(C(C)=O)CC4)c3)ncc2F)cc1OC [Compound 429, N2-[3-(4-Acetylpiperazino)phenyl]-N4-(3,4-dimethoxyphenyl)-5-fluoro-2,4-pyrimidinediamine] | 
10 | < 10 µM | > 10 µM | COc1ccc(Nc2nc(Nc3ccc(N4CCN(C(C)=O)CC4)cc3)ncc2F)cc1OC [Compound 430, N2-[4-(4-Acetylpiperazino)phenyl]-N4-(3,4-dimethoxyphenyl)-5-fluoro-2,4-pyrimidinediamine] | 
11 |  |  | CC(=O)N1CCN(c2cccc(Nc3ncc(F)c(Nc4ccc5c(c4)OC(F)(F)C(F)(F)O5)n3)c2)CC1 [Compound 431] | IC50 [1, 6]: < 10 µM; IC50 ([1]; low cell density CHMC, tryptase, 8 pt, read-out: LD Tryptase, CHMC, IgE, 8 pt): < 10 µM; IC50 [2, 7]: > 10 µM
12 |  |  | CC(=O)N1CCN(c2ccc(Nc3ncc(F)c(Nc4ccc5c(c4)OC(F)(F)C(F)(F)O5)n3)cc2)CC1 [Compound 432] | IC50 [1, 6]: < 10 µM; IC50 [2, 7]: > 10 µM
13 | < 10 µM | > 10 µM | COc1ccc(N(C)c2nc(Nc3cc(C)cc(C)c3)ncc2F)cc1OC [Compound 433] | 
14 | < 10 µM | > 10 µM | COc1cc(Nc2ncc(F)c(N(C)c3ccc(OC)c(OC)c3)n2)cc(OC)c1 [Compound 434] | 
15 | < 10 µM | > 10 µM | CCOC(=O)c1cc2cccc(Nc3ncc(F)c(N(C)c4ccc(OC)c(OC)c4)n3)c2[nH]1 [Compound 435, N4-(3,4-Dimethoxyphenyl)-N2-[2-(ethoxycarbonyl)indol-7-yl]-5-fluoro-N4-methyl-2,4-pyrimidinediamine] | 
16 | < 10 µM | > 10 µM | COc1ccc(N(C)c2nc(Nc3ccc4cc[nH]c4c3)ncc2F)cc1OC [Compound 436, N4-(3,4-Dimethoxyphenyl)-5-fluoro-N2-(indol-6-yl)-N4-methyl-2,4-pyrimidinediamine] | 
17 | < 10 µM | > 10 µM | COc1cc(Nc2nc(Nc3ccc(N4CCN(C(C)=O)CC4)cc3)ncc2F)cc(OC)c1 [Compound 437] | 
18 | < 10 µM | > 10 µM | COc1ccc(N(C)c2nc(Nc3cccc(-c4cnco4)c3)ncc2F)cc1OC [Compound 438, N4-(3,4-Dimethoxyphenyl)-5-fluoro-N4-methyl-N2-[3-(oxazol-5-yl)phenyl]-2,4-pyrimidinediamine] | IC50 [1, 5]: < 10 µM
19 | < 10 µM | > 10 µM | COc1ccc(N(C)c2nc(Nc3ccc(-c4ncco4)cc3)ncc2F)cc1OC [Compound 440, N4-(3,4-Dimethoxyphenyl)-5-fluoro-N4-methyl-N2-[4-(oxazol-2-yl)phenyl]-2,4-pyrimidinediamine] | 

Row | IC50 [1, 3] | IC50 [2, 4] | Compound | further results
20 | < 10 µM | > 10 µM | COC(=O)CN(c1ccc2c(c1)OCCO2)c1nc(Nc2cc(C)cc(C)c2)ncc1F [Compound 441] | 
21 | < 10 µM | > 10 µM | COC(=O)CN(c1ccc2c(c1)OCCO2)c1nc(Nc2cc(OC)cc(OC)c2)ncc1F [Compound 442] | 
22 | < 10 µM | > 10 µM | COC(=O)CN(c1ccc2c(c1)OCCO2)c1nc(Nc2cccc(-c3cnco3)c2)ncc1F [Compound 443] | 
23 | < 10 µM | > 10 µM | COC(=O)CN(c1ccc2c(c1)OCCO2)c1nc(Nc2cccc(-c3ncco3)c2)ncc1F [Compound 444] | 
24 | < 10 µM | > 10 µM | COC(=O)CN(c1ccc2c(c1)OCCO2)c1nc(Nc2ccc(-c3ncco3)cc2)ncc1F [Compound 445] | 
25 |  |  | CNC(=O)COc1cccc(Nc2ncc(F)c(N(CC(=O)OC)c3ccc4c(c3)OCCO4)n2)c1 [Compound 446, N4-(3,4-Ethylenedioxyphenyl)-5-fluoro-N4-(methoxycarbonylmethyl)-N2-[3-(N-methylamino)carbonylmethyleneoxyphenyl]-2,4-pyrimidinediamine] | IC50 [1, 6]: < 10 µM; IC50 [2, 7]: > 10 µM
26 |  |  | CNC(=O)COc1cccc(Nc2ncc(F)c(N(C)c3ccc(OC)c(OC)c3)n2)c1 [Compound 447, N4-(3,4-Dimethoxyphenyl)-5-fluoro-N4-methyl-N2-[3-(N-methylamino)carbonylmethyleneoxyphenyl]-2,4-pyrimidinediamine] | IC50 [1, 6]: < 10 µM; IC50 [2, 7]: > 10 µM
27 | < 10 µM | > 10 µM | CNC(=O)c1cc(Nc2ncc(F)c(Nc3ccc4c(c3)OCCO4)n2)ccc1Cl [Compound 448] | IC50 [1, 5]: < 10 µM
28 | < 10 µM | > 10 µM | CNC(=O)c1cc(Nc2ncc(F)c(Nc3ccc(OC)c(OC)c3)n2)ccc1Cl [Compound 449, N2-[4-Chloro-3-(N-methylamino)carbonylphenyl]-N4-(3,4-dimethoxyphenyl)-5-fluoro-2,4-pyrimidinediamine] | 
29 | < 10 µM | > 10 µM | CNC(=O)c1cc(Nc2ncc(F)c(Nc3cc(OC)cc(OC)c3)n2)ccc1Cl [Compound 450] | 
30 |  |  | CNC(=O)c1cc(Nc2ncc(F)c(Nc3ccc(OC)c(Cl)c3)n2)ccc1Cl [Compound 451, N4-(3-Chloro-4-methoxyphenyl)-N2-[4-chloro-3-(N-methylamino)carbonylphenyl]-5-fluoro-2,4-pyrimidinediamine] | IC50 [1, 8]: < 10 µM; IC50 [2, 9]: < 10 µM
31 |  |  | CCOC(=O)C(C)(C)Oc1ccc(Nc2nc(Nc3ccc(Cl)c(C(=O)NC)c3)ncc2F)cc1Cl [Compound 452, N4-[3-Chloro-4-(ethoxycarbonyl-1,1-dimethylmethyleneoxy)phenyl]-N2-[4-chloro-3-(N-methylamino)carbonylphenyl]-5-fluoro-2,4-pyrimidinediamine] | IC50 [1, 10]: < 10 µM; IC50 ([2]; low cell density): < 10 µM
32 |  |  | CNC(=O)c1cc(Nc2ncc(F)c(N(C)c3ccc4c(c3)OCCO4)n2)ccc1Cl [Compound 453, N2-[4-Chloro-3-(N-methylamino)carbonylphenyl]-N4-(3,4-ethylenedioxyphenyl)-5-fluoro-N4-methyl-4-pyrimidinediamine] | IC50 [1, 10]: < 10 µM; IC50 ([2]; low cell density): > 10 µM
33 |  |  | CNC(=O)c1cc(Nc2ncc(F)c(N(C)c3ccc(OC)c(OC)c3)n2)ccc1Cl [Compound 454, N2-[4-Chloro-3-(N-methylamino)carbonylphenyl]-N4-(3,4-dimethoxyphenyl)-5-fluoro-N4-methyl-4-pyrimidinediamine] | IC50 [1, 10]: < 10 µM; IC50 ([2]; low cell density): > 10 µM
34 |  |  | CNC(=O)c1cc(Nc2ncc(F)c(Nc3ccc4c(c3)NC(=O)C(C)(C)O4)n2)ccc1Cl [Compound 455] | IC50 [1, 8]: < 10 µM; IC50 [1, 11]: < 10 µM; IC50 [2, 9]: > 10 µM
35 |  |  | CNC(=O)c1ccc(Nc2ncc(F)c(Nc3ccc4c(c3)NC(=O)C(C)(C)O4)n2)cc1Cl [Compound 456, N2-[3-Chloro-4-(N-methylamino)carbonylphenyl]-N4-(2,2-dimethyl-3-oxo-4H-benz[1,4]oxazin-6-yl)-5-fluoro-2,4-pyrimidinediamine] | IC50 [1, 8]: < 10 µM; IC50 [1, 11]: < 10 µM; IC50 [2, 9]: < 10 µM
36 |  |  | COc1cc(OC)cc(N(C)c2nc(Nc3ccc(OC)nc3OC)ncc2F)c1 [Compound 457] | IC50 [1, 8]: < 10 µM; IC50 [1, 11]: < 10 µM; IC50 [2, 9]: < 10 µM
37 |  |  | COc1ccc(Nc2ncc(F)c(N(C)c3ccc4c(c3)OCCO4)n2)c(OC)n1 [Compound 458] | IC50 [1, 8]: > 10 µM; IC50 [2, 9]: > 10 µM
38 |  |  | COc1cc(Nc2nc(Nc3ccc(OC)nc3OC)ncc2F)cc(OC)c1 [Compound 459] | IC50 [1, 8]: < 10 µM; IC50 [2, 9]: > 10 µM
